From US10815230B2, “Casein kinase 1 delta inhibitor” (ELECTROPHORETICS LIMITED, priority 2015, dated 2020)

How the values were obtained:
Details in all cases: read-out: % Ctrl @ 10000 nM
IKK-epsilon = IKK-epsilon (Homo sapiens, UniProt Q14164); assay: KINOMEscan binding assay
EPHB4 = EPHB4 (Homo sapiens, UniProt P54760); assay: KINOMEscan binding assay
FLT3 (D835H) = FLT3 (D835H) (Homo sapiens, UniProt P36888, D835H); assay: KINOMEscan binding assay
GRK1 = GRK1 (Homo sapiens, UniProt Q15835); assay: KINOMEscan binding assay
PKNB M. tuberculosis = PKNB M. tuberculosis (Mycobacterium tuberculosis, UniProt P9WI81); assay: biochemical; type: binding
[1] = target: JAK3 (JH1domain-catalytic) (Homo sapiens, UniProt P52333); assay: KINOMEscan binding assay
CLK3 = CLK3 (Homo sapiens, UniProt P49761); assay: KINOMEscan binding assay
IRAK1 = IRAK1 (Homo sapiens, UniProt P51617); assay: KINOMEscan binding assay
CASK = CASK (Homo sapiens, UniProt O14936); assay: KINOMEscan binding assay
Sequence of CASK (O14936 whole entry): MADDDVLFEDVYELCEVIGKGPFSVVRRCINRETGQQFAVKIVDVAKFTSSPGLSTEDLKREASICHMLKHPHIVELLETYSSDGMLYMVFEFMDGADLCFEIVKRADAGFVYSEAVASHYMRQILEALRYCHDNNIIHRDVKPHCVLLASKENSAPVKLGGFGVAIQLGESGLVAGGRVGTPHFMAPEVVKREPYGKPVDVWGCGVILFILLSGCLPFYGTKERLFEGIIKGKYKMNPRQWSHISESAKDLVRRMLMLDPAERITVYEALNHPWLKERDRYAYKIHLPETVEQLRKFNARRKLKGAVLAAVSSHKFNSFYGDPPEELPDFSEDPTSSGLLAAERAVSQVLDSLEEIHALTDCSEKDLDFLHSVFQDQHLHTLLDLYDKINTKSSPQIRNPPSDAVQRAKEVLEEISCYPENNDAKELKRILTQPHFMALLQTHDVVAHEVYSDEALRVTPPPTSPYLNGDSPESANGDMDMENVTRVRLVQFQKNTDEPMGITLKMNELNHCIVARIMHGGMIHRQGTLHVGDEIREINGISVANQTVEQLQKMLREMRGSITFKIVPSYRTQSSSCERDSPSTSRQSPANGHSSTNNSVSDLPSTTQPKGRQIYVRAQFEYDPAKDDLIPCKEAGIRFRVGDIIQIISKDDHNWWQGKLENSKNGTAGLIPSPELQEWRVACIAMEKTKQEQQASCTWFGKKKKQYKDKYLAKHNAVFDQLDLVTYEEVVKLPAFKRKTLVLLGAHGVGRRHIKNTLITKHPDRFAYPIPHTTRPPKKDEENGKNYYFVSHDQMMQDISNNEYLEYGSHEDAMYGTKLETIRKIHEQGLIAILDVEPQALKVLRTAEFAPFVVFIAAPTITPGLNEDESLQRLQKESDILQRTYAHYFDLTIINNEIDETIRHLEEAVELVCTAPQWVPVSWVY

NIK = NIK (Homo sapiens, UniProt Q99558); assay: KINOMEscan binding assay
Sequence of NIK (Q99558 whole entry): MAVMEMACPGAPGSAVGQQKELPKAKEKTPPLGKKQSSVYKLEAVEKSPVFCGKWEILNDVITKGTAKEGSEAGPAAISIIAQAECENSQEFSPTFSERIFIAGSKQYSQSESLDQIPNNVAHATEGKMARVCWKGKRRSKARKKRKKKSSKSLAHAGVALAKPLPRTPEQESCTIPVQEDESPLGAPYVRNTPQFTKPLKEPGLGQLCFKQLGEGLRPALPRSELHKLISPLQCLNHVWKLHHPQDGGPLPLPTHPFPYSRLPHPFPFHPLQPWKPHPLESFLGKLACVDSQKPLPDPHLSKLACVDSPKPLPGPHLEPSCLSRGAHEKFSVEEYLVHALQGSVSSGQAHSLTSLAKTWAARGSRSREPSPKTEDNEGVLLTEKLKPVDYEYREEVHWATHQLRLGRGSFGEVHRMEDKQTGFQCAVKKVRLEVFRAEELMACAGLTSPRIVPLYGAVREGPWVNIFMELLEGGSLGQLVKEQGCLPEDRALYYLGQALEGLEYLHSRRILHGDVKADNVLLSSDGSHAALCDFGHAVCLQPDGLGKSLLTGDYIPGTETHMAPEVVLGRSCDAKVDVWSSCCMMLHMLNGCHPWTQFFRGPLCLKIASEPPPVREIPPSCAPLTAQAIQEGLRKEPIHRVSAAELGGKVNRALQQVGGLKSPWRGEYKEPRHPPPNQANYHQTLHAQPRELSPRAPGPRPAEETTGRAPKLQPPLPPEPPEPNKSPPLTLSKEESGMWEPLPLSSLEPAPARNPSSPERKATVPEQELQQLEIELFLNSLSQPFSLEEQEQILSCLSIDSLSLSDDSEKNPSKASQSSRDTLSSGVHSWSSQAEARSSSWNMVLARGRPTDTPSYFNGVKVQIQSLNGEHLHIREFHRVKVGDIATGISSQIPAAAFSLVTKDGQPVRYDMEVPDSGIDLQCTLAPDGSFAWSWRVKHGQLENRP

ABL1 phosphorylated = ABL1 phosphorylated (Homo sapiens, UniProt P00519); assay: KINOMEscan binding assay
MAPKAPK2 = target: T1, MAPKAPK2 (Homo sapiens, UniProt P49137); assay: KINOMEscan binding assay
T1 construct: T7 phage fusion (most assays) or DNA label after HEK293 expression; purchased DiscoveRx (KINOMEscan, LeadHunter Discovery services); host or cells: T7 phage in E. coli (BL21-derived) or HEK293

TRPM6 = TRPM6 (Homo sapiens, UniProt Q9BX84); assay: KINOMEscan binding assay
MST2 = MST2 (Homo sapiens, UniProt Q13188); assay: KINOMEscan binding assay
NEK9 = NEK9 (Homo sapiens, UniProt Q8TD19); assay: KINOMEscan binding assay
Sequence of NEK9 (Q8TD19 whole entry): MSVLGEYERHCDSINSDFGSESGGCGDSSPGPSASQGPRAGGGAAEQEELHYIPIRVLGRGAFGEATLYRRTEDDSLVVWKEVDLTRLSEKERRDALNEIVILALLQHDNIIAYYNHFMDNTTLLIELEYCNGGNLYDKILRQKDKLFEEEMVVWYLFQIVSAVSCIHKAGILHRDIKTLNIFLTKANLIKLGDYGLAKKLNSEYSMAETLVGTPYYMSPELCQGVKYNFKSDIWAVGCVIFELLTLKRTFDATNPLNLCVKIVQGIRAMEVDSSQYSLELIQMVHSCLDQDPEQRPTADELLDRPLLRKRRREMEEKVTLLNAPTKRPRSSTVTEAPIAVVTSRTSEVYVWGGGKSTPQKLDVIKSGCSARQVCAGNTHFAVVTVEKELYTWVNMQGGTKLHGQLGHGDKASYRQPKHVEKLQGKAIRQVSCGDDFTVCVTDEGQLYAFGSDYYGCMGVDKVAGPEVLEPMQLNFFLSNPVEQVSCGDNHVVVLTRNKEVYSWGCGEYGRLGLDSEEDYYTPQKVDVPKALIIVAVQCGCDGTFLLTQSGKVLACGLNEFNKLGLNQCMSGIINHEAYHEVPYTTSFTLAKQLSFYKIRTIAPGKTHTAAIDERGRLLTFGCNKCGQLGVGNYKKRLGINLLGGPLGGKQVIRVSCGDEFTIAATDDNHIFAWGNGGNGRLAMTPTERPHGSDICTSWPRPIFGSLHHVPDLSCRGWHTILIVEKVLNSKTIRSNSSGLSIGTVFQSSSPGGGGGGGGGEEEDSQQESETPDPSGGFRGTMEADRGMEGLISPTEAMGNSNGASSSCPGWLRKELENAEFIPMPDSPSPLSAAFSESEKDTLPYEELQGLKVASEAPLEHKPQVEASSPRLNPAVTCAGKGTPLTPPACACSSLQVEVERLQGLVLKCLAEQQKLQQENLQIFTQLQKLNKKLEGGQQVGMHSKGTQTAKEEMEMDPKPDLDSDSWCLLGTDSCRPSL

CDK7 = CDK7 (Homo sapiens, UniProt P50613); assay: KINOMEscan binding assay
PCTK2 = PCTK2 (Homo sapiens, UniProt Q00537); assay: KINOMEscan binding assay
SgK110 = SgK110 (Homo sapiens, UniProt P0C264); assay: KINOMEscan binding assay
AKT2 = AKT2 (Homo sapiens, UniProt P31751); assay: KINOMEscan binding assay
FLT4 = FLT4 (Homo sapiens, UniProt P35916); assay: KINOMEscan binding assay
LRRK2 (G2019S) = target: T2, LRRK2 (G2019S) (Homo sapiens, UniProt Q5S007, G2019S); assay: KINOMEscan binding assay
T2 construct: T7 phage fusion (most assays) or DNA label after HEK293 expression; purchased DiscoveRx (KINOMEscan, LeadHunter Discovery services); host or cells: T7 phage in E. coli (BL21-derived) or HEK293

ADCK4 = ADCK4 (Homo sapiens, UniProt Q96D53); assay: KINOMEscan binding assay
ASK2 = ASK2 (Homo sapiens, UniProt O95382); assay: KINOMEscan binding assay
ERK5 = ERK5 (Homo sapiens, UniProt Q13164); assay: KINOMEscan binding assay
[2] = target: EGFR (L747-T751del, Sins) (Homo sapiens, UniProt P00533, DEL747-750/T751S); assay: KINOMEscan binding assay
SGK2 = SGK2 (Homo sapiens, UniProt Q9HBY8); assay: KINOMEscan binding assay
PIK3CA = PIK3CA (Homo sapiens, UniProt P42336); assay: KINOMEscan binding assay
Sequence of PIK3CA (P42336 whole entry): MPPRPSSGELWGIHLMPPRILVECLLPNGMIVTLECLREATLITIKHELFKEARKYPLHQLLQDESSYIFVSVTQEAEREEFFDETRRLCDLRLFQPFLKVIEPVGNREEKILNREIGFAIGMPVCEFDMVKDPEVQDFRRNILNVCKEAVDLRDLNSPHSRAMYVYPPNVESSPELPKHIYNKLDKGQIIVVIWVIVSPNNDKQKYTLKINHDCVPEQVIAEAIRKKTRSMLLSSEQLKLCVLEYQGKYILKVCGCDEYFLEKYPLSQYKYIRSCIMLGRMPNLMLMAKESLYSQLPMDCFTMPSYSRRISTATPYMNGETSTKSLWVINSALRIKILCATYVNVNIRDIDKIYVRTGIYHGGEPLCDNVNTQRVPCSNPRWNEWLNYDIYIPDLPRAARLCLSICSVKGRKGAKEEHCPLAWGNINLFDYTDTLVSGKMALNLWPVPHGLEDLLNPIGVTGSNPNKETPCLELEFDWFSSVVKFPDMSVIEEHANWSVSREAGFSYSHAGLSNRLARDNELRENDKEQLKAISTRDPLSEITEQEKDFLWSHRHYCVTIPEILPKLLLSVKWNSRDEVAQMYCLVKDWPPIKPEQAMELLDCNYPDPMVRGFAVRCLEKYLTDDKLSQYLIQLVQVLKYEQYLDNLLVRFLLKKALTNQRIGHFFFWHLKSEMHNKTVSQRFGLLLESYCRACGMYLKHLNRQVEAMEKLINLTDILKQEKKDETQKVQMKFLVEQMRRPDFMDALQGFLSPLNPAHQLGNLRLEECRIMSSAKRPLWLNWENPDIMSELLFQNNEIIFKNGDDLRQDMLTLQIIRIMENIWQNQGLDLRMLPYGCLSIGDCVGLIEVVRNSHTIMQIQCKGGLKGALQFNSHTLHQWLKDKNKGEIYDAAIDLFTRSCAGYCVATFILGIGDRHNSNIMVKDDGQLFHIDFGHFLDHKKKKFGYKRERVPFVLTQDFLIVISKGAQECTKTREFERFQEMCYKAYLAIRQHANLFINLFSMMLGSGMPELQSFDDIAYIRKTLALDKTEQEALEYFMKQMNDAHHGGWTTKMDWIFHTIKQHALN

BRAF = BRAF (Homo sapiens, UniProt P15056); assay: KINOMEscan binding assay
KIT = KIT (Homo sapiens, UniProt P10721); assay: KINOMEscan binding assay
Sequence of KIT (P10721 26-976): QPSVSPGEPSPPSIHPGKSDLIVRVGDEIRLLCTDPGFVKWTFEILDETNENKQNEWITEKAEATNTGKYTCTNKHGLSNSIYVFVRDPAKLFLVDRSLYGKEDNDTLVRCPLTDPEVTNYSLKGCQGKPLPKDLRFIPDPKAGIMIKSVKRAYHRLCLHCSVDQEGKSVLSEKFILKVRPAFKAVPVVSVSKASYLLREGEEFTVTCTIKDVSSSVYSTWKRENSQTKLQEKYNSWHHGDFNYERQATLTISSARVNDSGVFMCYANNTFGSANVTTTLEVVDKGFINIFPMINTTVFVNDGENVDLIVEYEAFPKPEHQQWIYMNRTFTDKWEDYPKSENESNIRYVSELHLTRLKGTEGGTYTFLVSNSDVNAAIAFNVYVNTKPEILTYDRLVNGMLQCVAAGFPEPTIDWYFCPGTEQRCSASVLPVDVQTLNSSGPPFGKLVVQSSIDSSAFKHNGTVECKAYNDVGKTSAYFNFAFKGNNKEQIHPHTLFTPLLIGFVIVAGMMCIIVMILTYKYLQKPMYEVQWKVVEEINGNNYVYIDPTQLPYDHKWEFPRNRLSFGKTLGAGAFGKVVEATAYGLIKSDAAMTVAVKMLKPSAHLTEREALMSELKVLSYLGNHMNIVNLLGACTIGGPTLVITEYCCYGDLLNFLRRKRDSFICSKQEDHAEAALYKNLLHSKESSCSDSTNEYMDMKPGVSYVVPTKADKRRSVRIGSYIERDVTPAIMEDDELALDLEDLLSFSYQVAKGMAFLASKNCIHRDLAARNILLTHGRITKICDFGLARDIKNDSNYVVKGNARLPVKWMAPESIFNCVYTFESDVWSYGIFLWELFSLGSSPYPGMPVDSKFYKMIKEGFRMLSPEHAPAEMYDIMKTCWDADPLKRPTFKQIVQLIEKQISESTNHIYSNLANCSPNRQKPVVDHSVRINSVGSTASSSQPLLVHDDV

MYO3A = MYO3A (Homo sapiens, UniProt Q8NEV4); assay: KINOMEscan binding assay
HPK1 = HPK1 (Homo sapiens, UniProt Q92918); assay: KINOMEscan binding assay
PRP4 = PRP4 (Homo sapiens, UniProt Q13523); assay: KINOMEscan binding assay
KIT (V559D, T670I) = KIT (V559D, T670I) (Homo sapiens, UniProt P10721, T670I/V559D); assay: KINOMEscan binding assay
Sequence of KIT (V559D, T670I) (P10721 26-976 V559D/T670I): as the sequence (P10721 26-976) above, with V534D, T645I counted along it

FLT3 = FLT3 (Homo sapiens, UniProt P36888); assay: KINOMEscan binding assay
LTK = target: T3, LTK (Homo sapiens, UniProt P29376); assay: KINOMEscan binding assay
T3 construct: T7 phage fusion (most assays) or DNA label after HEK293 expression; purchased DiscoveRx (KINOMEscan, LeadHunter Discovery services); host or cells: T7 phage in E. coli (BL21-derived) or HEK293

MEK2 = MEK2 (Homo sapiens, UniProt P36507); assay: KINOMEscan binding assay
[3] = target: ABL1 (H396P) phosphorylated (Homo sapiens, UniProt P00519, H396P); assay: KINOMEscan binding assay
ULK2 = target: T4, ULK2 (Homo sapiens, UniProt Q8IYT8); assay: KINOMEscan binding assay
T4 construct: purchased DiscoveRx (KINOMEscan, LeadHunter Discovery services)

KIT (L576P) = KIT (L576P) (Homo sapiens, UniProt P10721, L576P); assay: KINOMEscan binding assay
Sequence of KIT (L576P) (P10721 26-976 L576P): as the sequence (P10721 26-976) above, with L551P counted along it

ZAP70 = target: T5, ZAP70 (Homo sapiens, UniProt P43403); assay: KINOMEscan binding assay
T5 construct: purchased DiscoveRx (KINOMEscan, LeadHunter Discovery services)

PCTK3 = PCTK3 (Homo sapiens, UniProt Q07002); assay: KINOMEscan binding assay

Nc1ncc(-c2nc3ccccc3o2)c(-c2ccncc2)n1 [Comparative Compound 324, 5-(1,3-benzoxazol-2-yl)-4-(pyridine-4-yl)pyrimidin-2-amine]
remaining binding at 10 µM (IKK-epsilon): 82% | remaining binding at 10 µM (EPHB4): 100% | remaining binding at 10 µM (FLT3 (D835H)): 68% | remaining binding at 10 µM (GRK1): 68% | remaining activity at 10 µM (PKNB M. tuberculosis): 74% | remaining binding at 10 µM [1]: 74% | remaining binding at 10 µM (CLK3): 99% | remaining binding at 10 µM (IRAK1): 87% | remaining binding at 10 µM (CASK): 78% | remaining binding at 10 µM (NIK): 100% | remaining binding at 10 µM (ABL1 phosphorylated): 98% | remaining binding at 10 µM (MAPKAPK2): 100% | remaining binding at 10 µM (TRPM6): 53% | remaining binding at 10 µM (MST2): 94% | remaining binding at 10 µM (NEK9): 100% | remaining binding at 10 µM (CDK7): 70% | remaining binding at 10 µM (PCTK2): 99% | remaining binding at 10 µM (SgK110): 94% | remaining binding at 10 µM (AKT2): 100% | remaining binding at 10 µM (FLT4): 79% | remaining binding at 10 µM (LRRK2 (G2019S)): 76% | remaining binding at 10 µM (ADCK4): 100% | remaining binding at 10 µM (ASK2): 99% | remaining binding at 10 µM (ERK5): 93% | remaining binding at 10 µM [2]: 54% | remaining binding at 10 µM (SGK2): 100% | remaining binding at 10 µM (PIK3CA): 100% | remaining binding at 10 µM (BRAF): 77% | remaining binding at 10 µM (KIT): 91% | remaining binding at 10 µM (MYO3A): 98% | remaining binding at 10 µM (HPK1): 86% | remaining binding at 10 µM (PRP4): 70% | remaining binding at 10 µM (KIT (V559D, T670I)): 98% | remaining binding at 10 µM (FLT3): 100% | remaining binding at 10 µM (LTK): 74% | remaining binding at 10 µM (MEK2): 82% | remaining binding at 10 µM [3]: 98% | remaining binding at 10 µM (ULK2): 100% | remaining binding at 10 µM (KIT (L576P)): 57% | remaining binding at 10 µM (ZAP70): 78% | remaining binding at 10 µM (PCTK3): 86%

CNc1c(C(N)=O)c2ccccn2c1C(=O)c1ccc(F)cc1 [Compound A, 2-methyl-amino-3-[(4-fluorophenyl)carbonyl]indolizine-1-carboxamide]
remaining binding at 10 µM (IKK-epsilon): 74% | remaining binding at 10 µM (EPHB4): 54% | remaining binding at 10 µM (FLT3 (D835H)): 60% | remaining binding at 10 µM (GRK1): 53% | remaining activity at 10 µM (PKNB M. tuberculosis): 86% | remaining binding at 10 µM [1]: 100% | remaining binding at 10 µM (CLK3): 94% | remaining binding at 10 µM (IRAK1): 93% | remaining binding at 10 µM (CASK): 77% | remaining binding at 10 µM (NIK): 100% | remaining binding at 10 µM (ABL1 phosphorylated): 51% | remaining binding at 10 µM (MAPKAPK2): 100% | remaining binding at 10 µM (TRPM6): 69% | remaining binding at 10 µM (MST2): 89% | remaining binding at 10 µM (NEK9): 100% | remaining binding at 10 µM (CDK7): 56% | remaining binding at 10 µM (PCTK2): 83% | remaining binding at 10 µM (SgK110): 92% | remaining binding at 10 µM (AKT2): 98% | remaining binding at 10 µM (FLT4): 62% | remaining binding at 10 µM (LRRK2 (G2019S)): 86% | remaining binding at 10 µM (ADCK4): 84% | remaining binding at 10 µM (ASK2): 100% | remaining binding at 10 µM (ERK5): 78% | remaining binding at 10 µM [2]: 12% | remaining binding at 10 µM (SGK2): 100% | remaining binding at 10 µM (PIK3CA): 89% | remaining binding at 10 µM (BRAF): 93% | remaining binding at 10 µM (KIT): 32% | remaining binding at 10 µM (MYO3A): 98% | remaining binding at 10 µM (HPK1): 82% | remaining binding at 10 µM (PRP4): 90% | remaining binding at 10 µM (KIT (V559D, T670I)): 99% | remaining binding at 10 µM (FLT3): 96% | remaining binding at 10 µM (LTK): 85% | remaining binding at 10 µM (MEK2): 24% | remaining binding at 10 µM [3]: 49% | remaining binding at 10 µM (ULK2): 95% | remaining binding at 10 µM (KIT (L576P)): 29% | remaining binding at 10 µM (ZAP70): 93% | remaining binding at 10 µM (PCTK3): 84%
